ChEMBL document CHEMBL1177704, “Unexpected reaction of 2-alkylsulfanylimidazoles to imidazol-2-ones: pyridinylimidazol-2-ones as novel potent p38alpha mitogen-activated protein kinase inhibitors” (J Med Chem, 2010)

Assays:
[1] = molecular target: Mitogen-activated protein kinase 14 (Homo sapiens, UniProt Q16539); assay: Inhibition of p38alpha
[2] = tested on: Blood; assay: Antiinflammatory activity in human whole blood assessed as inhibition of LPS-stimulated TNFalpha release after 15 mins by ELISA; assay type: functional, tissue-based; conditions: 0.25 h

Sequence of Mitogen-activated protein kinase 14 (Q16539 whole entry): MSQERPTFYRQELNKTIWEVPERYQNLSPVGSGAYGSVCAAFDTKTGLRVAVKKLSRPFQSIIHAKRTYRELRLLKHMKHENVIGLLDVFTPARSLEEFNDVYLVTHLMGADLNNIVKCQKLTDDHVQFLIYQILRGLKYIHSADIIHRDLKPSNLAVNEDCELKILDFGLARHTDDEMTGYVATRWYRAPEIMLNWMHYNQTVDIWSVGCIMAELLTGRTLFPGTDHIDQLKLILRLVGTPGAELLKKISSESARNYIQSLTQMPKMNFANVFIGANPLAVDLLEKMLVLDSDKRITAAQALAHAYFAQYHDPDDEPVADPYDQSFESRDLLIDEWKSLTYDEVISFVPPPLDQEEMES

| Structure (SMILES) | IC50 [1] | IC50 [2] |
| --- | --- | --- |
| O=c1[nH]c(-c2ccncc2)c(-c2ccc(F)cc2)[nH]1 | 468 nM | – |
| O=c1[nH]c(-c2ccc(F)cc2)c(-c2ccnc(N[C@H]3CC[C@H](O)CC3)c2)[nH]1 | 23 nM | 2920 nM |
| CC(C)[C@H](C)Nc1cc(-c2[nH]c(=O)[nH]c2-c2ccc(F)cc2)ccn1 | 49 nM | 381 nM |
| C[C@@H](Nc1cc(-c2[nH]c(=O)[nH]c2-c2ccc(F)cc2)ccn1)c1ccccc1 | 324 nM | – |
| C[S+]([O-])c1ccc(-c2nc(-c3ccc(F)cc3)c(-c3ccncc3)[nH]2)cc1 (configuration not stated) [SB-203580] | – | 1760 nM |
